Literature values in patent publication US20110052685A1, “GASTRIC RETENTIVE PHARMACEUTICAL COMPOSITIONS FOR IMMEDIATE AND EXTENDED RELEASE OF ACETAMINOPHEN” (DEPOMED, INC., priority 2009, published 2011).

In the case of `CC(=O)Nc1ccc(O)cc1` [acetaminophen, N-(4-hydroxyphenyl)acetamine], the Half-life (elimination, from Rawlins et al., 1977) is given as “(2.7) hr”, the “1st Order Elimination Constant K” value (from Rawlins et al., 1977) is given as 0.257 h⁻¹ and the “Oral Bioavaiability F” value (from Rawlins et al., 1977) is given as 0.89. The “Volume of Distribution V” value (from Rawlins et al., 1977) was 78800 mL, the “Absorption Half-life” value (oral immediate release, fed mode) was “(0.76) hr” and the “1st Order Absorption Constant (under fed mode - with food) ka” value (oral immediate release, from Divoll et al., 1982) was 0.912 h⁻¹.
